From US12728168B2, “Anti-CEA antibody-exatecan analog conjugate and pharmaceutical use thereof” (JIANGSU HENGRUI MEDICINE CO., LTD., priority 2019, dated 2026)

Experiments:
HCT116 cultured alone = assay: Bystander effect test, HCT116 cultured alone; type: cell-based; conditions: ADC 4 nM, 5 days, FIG. 2
Protocol: (§1) In order to evaluate the bystander effect and cytotoxicity of the ADC, the CEA-highly expressing cell line MKN45 and the CEA-expressing negative cell line HCT116 were cultured in a 6-well cell culture plate for 24 h, and then an ADC sample was added at a final concentration of 4 nM. The cells were cultured in a cell incubator at 37° C. for another 5 days.
(§2) The cells were digested with pancreatin and collected, and CEA Monoclonal Antibody FITC (ThermoFisher, Cat #MA1-80578) was added at a final concentration of 10 μg/mL. The cells were incubated on ice in the dark for 1 h, washed twice with PBS, and counted using a flow cytometer.

[1] = system: MKN45 and HCT116 co-cultured; assay: Bystander effect and cytotoxicity, MKN45 and HCT116 co-cultured; type: cell-based; conditions: ADC 4 nM, 5 days, FIG. 2
Protocol: as §1, §2

[2] = system: LS174T (with moderate CEA expression); assay: Cytotoxicity of ADCs, Cell Titer-Glo, LS174T; type: cell-based; conditions: for IC50: 5 days
Protocol: (§3) Following conjugation of humanized CEA antibodies to toxin 2-A, cytotoxicity of each ADC to cancer cell lines with different CEA expression levels was evaluated. The CEA-highly expressing cells MKN45, the CEA-moderately expressing cells LS174T and the CEA-expressing negative cells HCT116 were plated in 96-well plates; gradient-diluted ADC samples were added to the cells the next day, and the cells were cultured at 37° C. for 5 days. 50 μL of Cell Titer-Glo reagent (Promega, Cat #G9242) was added to each well, and after incubation for 10 min in the dark, the luminescence signals were detected by a cell imaging detector (BioTek, Cytation5). An inhibition curve was plotted with the detection results using PRISM analysis software, and fitted to obtain an IC50 value of the inhibitory activity of the ADC against cell proliferation.

[3] = system: MKN45 (with high CEA expression); assay: Cytotoxicity of ADCs, Cell Titer-Glo, MKN45; type: cell-based, human; conditions: for IC50: 5 days
Protocol: as §3

[4] = system: MKN45 xenograft tumor model; assay: In vivo inhibitory activity against tumors, MKN45 xenograft; set-up: species or system BALB/c nude mice
Protocol: (§4) The in vivo efficacy of the ADC molecules was evaluated using LS174T and MKN45 xenograft tumor models. BALB/c nude mice (SPF grade, Shanghai Slac Laboratory Animal Co., Ltd., certificate no.: 201833814, license no.: SCXK (Jiangsu) 2016-0010) were housed in a 12/12 hour light/dark cycle at a temperature of 23±1° C. with humidity at 40-50%, with food (standard sterilized feed for mice) and water ad libitum. The mice were acclimatized for 10 days in a laboratory environment before the start of the experiment and then inoculated subcutaneously on the right flank with LS174T cells (5×10^5 cells/mouse) or MKN45 cells (4×10^6 cells/mouse). Tumors were allowed to grow to a size of about 150 mm^3, and then the mice were randomized into groups of 8. After grouping, the mice in the experimental groups were intraperitoneally injected with ADC samples in a dose of 1 mg/kg or 3 mg/kg, and those in the blank control group were intraperitoneally injected with PBS, only once. The sizes of the tumors on the mice were observed, measured and recorded.

[5] = system: LS174T xenograft tumor model; assay: In vivo inhibitory activity against tumors, LS174T xenograft; set-up: species or system BALB/c nude mice
Protocol: as §4

[6] = system: HCT116 (without CEA expression); assay: Cytotoxicity of ADCs, Cell Titer-Glo, HCT116; type: cell-based; conditions: for IC50: 5 days
Protocol: as §3

human soluble CEA = target: T1, human soluble CEA (Homo sapiens, UniProt P06731); assay: Affinity of antibodies for soluble CEA using Biacore; type: binding; conditions: 1:1 Langmuir
T1 construct: His6 (C); made in house; host or cells: 293E cells
T1 sequence (P06731 with tags, fused parts or gaps): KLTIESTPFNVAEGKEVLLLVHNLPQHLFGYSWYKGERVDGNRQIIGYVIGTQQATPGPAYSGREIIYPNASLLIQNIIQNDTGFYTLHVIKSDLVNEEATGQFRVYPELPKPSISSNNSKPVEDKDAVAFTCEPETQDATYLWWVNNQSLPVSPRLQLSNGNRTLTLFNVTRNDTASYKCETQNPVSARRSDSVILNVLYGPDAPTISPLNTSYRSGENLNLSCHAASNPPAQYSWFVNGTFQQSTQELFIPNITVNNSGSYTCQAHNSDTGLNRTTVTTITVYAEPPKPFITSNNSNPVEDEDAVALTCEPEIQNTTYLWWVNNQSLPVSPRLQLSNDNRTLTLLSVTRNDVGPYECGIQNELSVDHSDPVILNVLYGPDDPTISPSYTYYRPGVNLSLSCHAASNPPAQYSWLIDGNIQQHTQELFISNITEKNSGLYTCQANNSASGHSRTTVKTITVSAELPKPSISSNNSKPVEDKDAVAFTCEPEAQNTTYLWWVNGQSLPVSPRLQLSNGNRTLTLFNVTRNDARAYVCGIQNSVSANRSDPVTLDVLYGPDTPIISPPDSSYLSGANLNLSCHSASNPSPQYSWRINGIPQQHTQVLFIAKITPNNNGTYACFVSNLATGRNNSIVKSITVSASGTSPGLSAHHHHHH
Protocol: The affinity of a test humanized antibody for human and monkey soluble CEA was determined using a Biacore (GE, T200) instrument. According to the method in the instructions of a human antibody capture kit (GE, Cat #BR-1008-39), the human antibody capture antibody was covalently conjugated to a biosensor chip CM5 (GE, Cat #BR-1005-30) of the Biacore instrument to affinity-capture a certain amount of the test antibody, then a series of concentration gradients of soluble CEA antigens were allow to flow through the surface of the chip, and reaction signals were detected in real time using Biacore, so that an association and dissociation curve was obtained. After each cycle of dissociation was completed, the biochip was washed and regenerated with a regeneration solution prepared in the human antibody capture kit. The data obtained from the experiment were fitted with the (1:1) Langmuir model using BIAevaluation version 4.1 software to obtain affinity values.

[7] = system: monkey CEA expressed on CHO cell surface (cynoCEA-CHO); assay: FACS binding assay, cynoCEA-CHO cells; set-up: species or system cynomolgus monkey; conditions: Table 17, humanized antibodies and controls
Sequence of monkey CEA expressed on CHO cell surface (cynoCEA-CHO) (as listed by the source): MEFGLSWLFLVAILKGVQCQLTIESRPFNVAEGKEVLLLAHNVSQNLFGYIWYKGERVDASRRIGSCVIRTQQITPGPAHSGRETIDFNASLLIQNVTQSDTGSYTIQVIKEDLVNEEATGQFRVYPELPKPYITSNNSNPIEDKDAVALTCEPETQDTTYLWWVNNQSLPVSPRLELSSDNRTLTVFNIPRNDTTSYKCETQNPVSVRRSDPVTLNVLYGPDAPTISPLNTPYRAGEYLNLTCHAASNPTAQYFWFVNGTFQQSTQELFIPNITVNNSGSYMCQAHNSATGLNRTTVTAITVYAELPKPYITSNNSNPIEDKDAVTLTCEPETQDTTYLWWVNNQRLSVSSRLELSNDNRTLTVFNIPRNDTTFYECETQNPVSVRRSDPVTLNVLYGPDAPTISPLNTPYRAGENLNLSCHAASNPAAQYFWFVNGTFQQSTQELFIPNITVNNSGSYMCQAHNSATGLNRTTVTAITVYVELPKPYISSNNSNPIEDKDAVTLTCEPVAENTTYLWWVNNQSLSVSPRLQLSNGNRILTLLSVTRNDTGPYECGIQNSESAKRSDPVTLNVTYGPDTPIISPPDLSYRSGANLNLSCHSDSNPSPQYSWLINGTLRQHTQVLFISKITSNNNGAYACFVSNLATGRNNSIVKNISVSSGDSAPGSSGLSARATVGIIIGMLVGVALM
Protocol: In order to detect the binding of the antibody to the CEA protein on the cell surface, the binding activity of the antibody was determined by FACS using cells expressing CEA on the cell surface. Cells were harvested and centrifuged at 400 g at 4° C. for 5 min. Pre-cooled PBS containing FBS at final concentration 10% was added, and the mixture was centrifuged at 400 g at 4° C. for 5 min; the procedures were repeated twice. […] The plate was incubated at 4° C. for 60 min and centrifuged, and the supernatant was removed. 250 μL of pre-cooled PBS containing FBS at final concentration 10% was added to each well to resuspend the cells, and the suspension was centrifuged at 400 g at 4° C. for 5 min, followed by the removal of the supernatant; the procedures were repeated twice. 50 μL of 1:200 diluted secondary antibody Alexa Fluor@488 goat anti-human IgG (H+L) (Lifetechologies, Cat #A11013) was added. The plate was incubated in the dark at 4° C. for 45 min and centrifuged, and the supernatant was removed. 250 μL of pre-cooled PBS containing FBS at final concentration 10% was added to each cell to resuspend the cells, and the suspension was centrifuged at 400 g at 4° C. for 5 min; the procedures were repeated twice. 100 μL of pre-cooled PBS was added to each well to resuspend the cells. The plate was analyzed by a flow cytometer (BD, FACSverse) for fluorescence signal values.

[8] = target: T2, human CEACAM1 expressed on CHO cell surface (CEACAM1-CHO) (Homo sapiens, UniProt P13688); assay: FACS binding assay, CEACAM1-CHO cells; conditions: Table 17, humanized antibodies and controls
T2 construct: expressed in transfected cells; host or cells: CHO cells
T2 sequence (P13688 35-526): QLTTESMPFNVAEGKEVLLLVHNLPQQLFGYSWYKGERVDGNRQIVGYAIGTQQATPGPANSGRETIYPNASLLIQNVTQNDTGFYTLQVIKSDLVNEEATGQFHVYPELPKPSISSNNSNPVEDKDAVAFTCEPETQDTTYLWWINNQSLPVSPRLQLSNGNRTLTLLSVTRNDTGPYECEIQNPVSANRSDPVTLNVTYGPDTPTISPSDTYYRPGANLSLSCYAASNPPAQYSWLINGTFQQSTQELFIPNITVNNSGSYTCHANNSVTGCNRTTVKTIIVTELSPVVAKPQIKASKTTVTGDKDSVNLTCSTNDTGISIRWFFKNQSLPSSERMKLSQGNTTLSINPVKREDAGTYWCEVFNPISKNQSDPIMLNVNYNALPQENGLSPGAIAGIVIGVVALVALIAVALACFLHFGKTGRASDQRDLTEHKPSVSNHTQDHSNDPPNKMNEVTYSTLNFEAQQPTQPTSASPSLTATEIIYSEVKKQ
Protocol: In order to detect the binding of the antibody to the CEA protein on the cell surface, the binding activity of the antibody was determined by FACS using cells expressing CEA on the cell surface. Cells were harvested and centrifuged at 400 g at 4° C. for 5 min. Pre-cooled PBS containing FBS at final concentration 10% was added, and the mixture was centrifuged at 400 g at 4° C. for 5 min; the procedures were repeated twice. The cells were seeded into a 96-well plate at 10^5 cells/well, and 100 μL of gradient diluted antibody solution was added to each well. The plate was incubated at 4° C. for 60 min and centrifuged, and the supernatant was removed. 250 μL of pre-cooled PBS containing FBS at final concentration 10% was added to each well to resuspend the cells, and the suspension was centrifuged at 400 g at 4° C. for 5 min, followed by the removal of the supernatant; the procedures were repeated twice. 50 μL of 1:200 diluted secondary antibody Alexa Fluor@488 goat anti-human IgG (H+L) (Lifetechologies, Cat #A11013) was added. The plate was incubated in the dark at 4° C. for 45 min and centrifuged, and the supernatant was removed. 250 μL of pre-cooled PBS containing FBS at final concentration 10% was added to each cell to resuspend the cells, and the suspension was centrifuged at 400 g at 4° C. for 5 min; the procedures were repeated twice. 100 μL of pre-cooled PBS was added to each well to resuspend the cells. The plate was analyzed by a flow cytometer (BD, FACSverse) for fluorescence signal values. Higher values indicate higher binding activity of the antibody to the protein on the cell surface. Binding curves were plotted using PRISM analysis software based on the assay results, and the EC50 values for the binding activity of the antibody to the cell surface proteins human CEA (MKN45 human gastric cancer cells, Nanjing Kebai Biotechnology Co., Ltd., Cat #CBP60488), cynoCEA-CHO and CEACAM1-CHO were obtained by fitting.

[9] = ADC batches of high DAR (6.29-7)
[10] = ADC batches of low DAR (3.97-4.8)

Substance: Lmab-CL2A-SN38: control ADC: toxin CL2A-SN38 conjugated to Lmab (labetuzumab)
- toxicity to HCT116 cultured alone (HCT116 cultured alone): very toxic
- bystander effect and cytotoxicity [1]: very toxic
- IC50 [2, 9]: 0.346 nM
- IC50 [2, 10]: 0.662 nM
- IC50 ratio HCT116/LS174T [2, 9]: 1.24
- IC50 ratio HCT116/LS174T [2, 10]: 1.60
- IC50 [3, 9]: 0.665 nM
- IC50 [3, 10]: 1.59 nM
- IC50 ratio HCT116/MKN45 [3, 9]: 0.64
- IC50 ratio HCT116/MKN45 [3, 10]: 0.66
- Tumor inhibition rate (%) ([4]; 3 mpk, intraperitoneal, only once, 3 mg/kg): 13.51%
- effect on tumor volume ([4]; FIG. 5, ranking among the 3-mpk groups): the worst inhibitory effect on tumors
- effect on tumor weight ([4]; FIG. 6, last day, ranking among the 3-mpk groups): the worst inhibitory effect on tumors
- Tumor inhibition rate (%) ([5]; 3 mpk, intraperitoneal, only once): 33.44%
- effect on tumor volume ([5]; FIG. 3, ranking among the 3-mpk groups): the worst inhibitory effect on tumors
- effect on tumor weight ([5]; FIG. 4, last day, ranking among the 3-mpk groups): the worst inhibitory effect on tumors
- IC50 [6, 9]: 0.428 nM
- IC50 [6, 10]: 1.06 nM
- dependence of cytotoxicity on CEA expression level ([6]; MKN45, LS174T and HCT116 compared): non-specific cytotoxicity

Substance: Lmab [reference compound]
- ka (human soluble CEA): 55800 M⁻¹ s⁻¹
- kd (human soluble CEA): 0.000331 s⁻¹
- EC50 (nM) cynoCEA-CHO [7]: No binding
- EC50 (nM) CEACAM1-CHO [8]: No binding
